| Compound | solubility (mole fraction) (in THF, 296 K) | solubility (mole fraction) (in THF, 310 K) | solubility (mole fraction) (in acetonitrile, 296 K) | solubility (mole fraction) (in acetonitrile, 310 K) | solubility (mole fraction) (in ethanol, 296 K) | solubility (mole fraction) (in ethanol, 310 K) | solubility (mole fraction) (in isopropanol, 296 K) | solubility (mole fraction) (in isopropanol, 310 K) | solubility (mole fraction) (in methanol, 296 K) | solubility (mole fraction) (in methanol, 310 K) | solubility (mole fraction) (in n-propanol, 296 K) | solubility (mole fraction) (in n-propanol, 310 K) | solubility (mole fraction) (in acetone, 296 K) | solubility (mole fraction) (in acetone, 310 K) |
| --- | --- | --- | --- | --- | --- | --- | --- | --- | --- | --- | --- | --- | --- | --- |
| C[C@]12CC[C@H](O)CC1=CC[C@@H]1[C@@H]2CC[C@]2(C)C(c3cccnc3)=CC[C@@H]12 | 0.00249 | 0.00393 | 4.44e-05 | 6.46e-05 | 0.00102 | 0.00126 | 0.00168 | 0.0015 | 0.000523 | 0.000656 | 0.00178 | 0.00256 |  |  |
| CC(=O)O[C@H]1CC[C@@]2(C)C(=CC[C@@H]3[C@@H]2CC[C@]2(C)C(c4cccnc4)=CC[C@@H]32)C1 |  |  | 0.0021 | 0.0027 | 0.0111 | 0.0127 | 0.0133 | 0.0145 | 0.00544 | 0.00648 | 0.0242 | 0.0279 | 0.0128 | 0.0181 |
